Data: paper PMC10149936, “Cofilin activation in pancreatic acinar cells plays a pivotal convergent role for mediating CCK-stimulated enzyme secretion and growth” (Frontiers in Physiology, 2023)
No end group written: not given here.

Key:
[1] = tested on: cofilin (pS3) in rat pancreatic acini; test: cofilin activation (phospho-pS3 cofilin Western blot) in isolated rat pancreatic acini; format: cell-based; conditions: for effect on basal phosphorylation of cofilin: SE 50 µM 3 h or D3 25 µM 1 h; for effect on basal phosphorylation of cofilin / effect on basal phosphorylation level of cofilin / decrease of basal phosphorylation levels of cofilin: no stimulant; for effect on cofilin phosphorylation (pS3): 1 min, CCK-8 100 nM, carbachol 1 μM, bombesin 1 nM, secretin 1 nM or VIP 1 nM, n at least 3; for effect on basal phosphorylation level of cofilin / reversal of cofilin dephosphorylation stimulated by CCK-8 and TPA: GFX 5 µM, kbNB 0.1 µM or PP2 10 µM; for effect on basal phosphorylation level of cofilin / reversal of cofilin dephosphorylation stimulated by CCK-8 and TPA / inhibition of dephosphorylation of cofilin stimulated by CCK-8 or TPA: 3 h; for reversal of cofilin dephosphorylation stimulated by CCK-8 and TPA: CCK-8 100 nM 3 min; for reversal of cofilin dephosphorylation stimulated by CCK-8 and TPA / inhibition of dephosphorylation of cofilin stimulated by CCK-8 or TPA: TPA 1 µM 5 min; for decrease of basal phosphorylation levels of cofilin / inhibition of CCK-8-stimulated dephosphorylation of cofilin: LIMK inhibitor 10 µM 3 h; for inhibition of CCK-8-stimulated dephosphorylation of cofilin: CCK-8 0.3 or 100 nM 3 min; for reversal of cofilin dephosphorylation by CCK-8: Wortmannin 1 µM, LY294002 100 µM, SB202190 10 µM, U0126 10 µM, Y-27632 10 µM 1 h, SP600125 20 µM 3 h; for reversal of cofilin dephosphorylation by CCK-8 / inhibition of dephosphorylation of cofilin stimulated by CCK-8 or TPA: CCK-8 0.3 and 100 nM 3 min; for inhibition of dephosphorylation of cofilin stimulated by CCK-8 or TPA: PF-3758309 0.1 nM or LCH-7749944 30 µM
Procedure: (§1) Pancreatic acini preparations were obtained by collagenase digestion as previously described ([Bissonnette et al., 1984]; [Sato et al., 1989]; [Ramos-Alvarez and Jensen, 2018]). After collagenase digestion, dispersed acini were preincubated with different inhibitors in standard incubation solution ([Ramos-Alvarez and Jensen, 2018]; [Ramos-Ãlvarez et al., 2020]) for 3 h at 37°C under conditions specific for PKD/PKC, Src, PI3K, MAPKs, SSH1, LIMK, cofilin, other phosphatases and PAK4 inhibitors, as described previously ([Ramos-Alvarez and Jensen, 2018]; [Ramos-Ãlvarez et al., 2020]). Isolated acini and CCK1-R/Panc-1 cells (M&M 2.2.1) were also preincubated with two SSH1 inhibitors, D3 (25 μM, 1 h) ([Li et al., 2015]) or SE (50 μM, 3 h for acini; 24 h for CCK1-R/Panc-1 cells) ([Lee et al., 2017]). After preincubation, 1 mL aliquots of dispersed acini were incubated at 37°C for 3–15 min with CCK-8 (0.3 nM or 100 nM), for 5–15 min with TPA (1 µM) or without stimulants, used as control. Cells were lysed in lysis buffer (50 mM Tris/HCl pH 7.5, 150 mM NaCl, 1% Triton X-100, 1% deoxycholate, 0.1% sodium azide, 1 mM EGTA, 0.4 mM EDTA, 0.2 mM sodium orthovanadate, 1 mM PMSF, and one protease inhibitor tablet per 10 mL). After sonication, lysates were centrifuged at 10,000×g for 15 min at 4°C and protein concentration was measured using the Bio-Rad protein assay reagent. Finally, cells were processed as below for Western blotting.
(§2) Both concentrations of CCK-8 were used because CCK-8 is reported to have different responses with physiological and supraphysiological concentrations contributing to physiological and pathophysiological processes such as pancreatitis ([Dufresne et al., 2006]).
(§3) Western blotting and immunoprecipitation were performed as described previously ([Ramos-Alvarez and Jensen, 2018]). Whole cell lysates were subjected to SDS-PAGE using 4%–20% Tris–Glycine gels. […] Finally, membranes were then washed again twice in blocking buffer for 4 min, twice in washing buffer for 4 min, incubated for 4 min with chemiluminescence detection reagents. The intensity of the protein bands was measured using GeneTools software from Syngene, which were assessed in the linear detection range.
All experiments were performed at least 3 times. Data are presented as mean ± SEM and were analyzed with the non-parametric Kruskal–Wallis analysis (data was not normally distributed) and the Dunn’s multiple comparison test using the GraphPad Prism 8.0 software. P values < 0.05 were considered significant.
(A) Isolated pancreatic acini were incubated in the absence or presence of CCK-8 (100 nM), carbachol (1 μM), bombesin (1 nM), secretin (1 nM) or VIP (1 nM) for 1 min and then lysed. (B) Isolated pancreatic acini were incubated in the absence or presence of CCK-8 and CCK-JMV (at the indicate concentrations) for 3 min and then lysed. Western blots were analyzed using anti-pS3 cofilin, which mediates the activation state of cofilin. Bands were visualized using chemiluminescence and quantified by densitometry.

[2] = tested on: cofilin (pS3) in CCK1-R/Panc-1 cells; test: cofilin activation (pS3 cofilin Western blot) in CCK1-R/Panc-1 cells; format: cell-based, human; conditions: CCK-8 0.3 or 100 nM; D3 25 µM 1 h or SE 50 µM 24 h
Procedure: CCK1 receptor transfected Panc-1 (CCK1-R/Panc-1) cells ([Berna et al., 2009]) and AR42J cells, were cultured in DMEM supplemented with 10% FBS and 1% penicillin/streptomycin and in RPMI supplemented with 10% FBS and 1% penicillin/streptomycin, respectively; and split 1:10 weekly with trypsin/EDTA, after washing in PBS. Finally, cells were seeded in 6-well plate and serum starved overnight, until they were 80% confluent. Cells were incubated at 37°C in 5% CO2/95% air. AR42J cells were treated with 100 nM dexamethasone for 72°h, which stimulates their differentiation into exocrine cells ([Logsdon, 1986]).
Pancreatic acini preparations were obtained by collagenase digestion as previously described ([Bissonnette et al., 1984]; [Sato et al., 1989]; [Ramos-Alvarez and Jensen, 2018]). […] Isolated acini and CCK1-R/Panc-1 cells (M&M 2.2.1) were also preincubated with two SSH1 inhibitors, D3 (25 μM, 1 h) ([Li et al., 2015]) or SE (50 μM, 3 h for acini; 24 h for CCK1-R/Panc-1 cells) ([Lee et al., 2017]). […] After sonication, lysates were centrifuged at 10,000×g for 15 min at 4°C and protein concentration was measured using the Bio-Rad protein assay reagent. […]
Western blotting and immunoprecipitation were performed as described previously ([Ramos-Alvarez and Jensen, 2018]). […] The intensity of the protein bands was measured using GeneTools software from Syngene, which were assessed in the linear detection range. […]
FIGURE 3 Effect of two SSH1 inhibitors, D3 and SE (A–C), or SSH1 siRNA (D), on the ability of CCK-8 (0.3 and 100 nM) to activate LIMK and cofilin in pancreatic acini (A/B) and activate cofilin in CCK1-R/Panc-1 cells (C/D). […] Western blots were analyzed using anti-pS3 cofilin and anti-pT508 […], and the knockdown effect of SSH1 was confirmed by Western blots using SSH1 (C-term) antibody. Bands were visualized using chemiluminescence and quantified by densitometry. […] Results are expressed as % of basal stimulation of the control group. *, p < 0.05 compared to the control group; ∞, p < 0.05 compared to stimulants without inhibitors. […]

[3] = tested on: LIMK (pT508) in pancreatic acini; test: LIMK phosphorylation (pT508 LIMK Western blot) in isolated rat pancreatic acini; format: cell-based; conditions: for effect on basal phosphorylation of LIMK: SE 50 µM 3 h or D3 25 µM 1 h; for effect on basal phosphorylation of LIMK / decrease of basal levels of LIMK phosphorylation: no stimulant; for decrease of basal levels of LIMK phosphorylation: 10 µM, 3 h preincubation, n at least 4
Procedure: as §1, §2, §3
Isolated pancreatic acini were incubated with either no addition (control), CCK-8 (0.3 and 100 nM) or TPA (1 µM) for the indicated periods of time and then lysed. Western blots were analyzed using anti-pT508 LIMK, anti-pS3 cofilin and anti-pS978 SSH1, which […] the activation states of LIMK, cofilin and SSH1. Bands were visualized using chemiluminescence and quantified by densitometry.

[4] = Rattus norvegicus, CCK-8 0.3 or 100 nM, 5 min, SE 50 µM 3 h or D3 25 µM 1 h preincubation, n at least 4, read-out: inhibition of CCK-8-caused cofilin dephosphorylation
[5] = Rattus norvegicus, CCK-8 0.3 or 100 nM, 5 min, SE 50 µM 3 h or D3 25 µM 1 h preincubation, read-out: inhibition of CCK-8's dephosphorylation of LIMK
[6] = inhibitor 10 µM 3 h, CCK-8 0.3 or 100 nM 3 min

O=C(O)c1cc(O)c2c(c1)[C@H]([C@H]1c3cc(C(=O)O)cc(O)c3C(=O)c3c(O[C@@H]4O[C@H](CO)[C@@H](O)[C@H](O)[C@H]4O)cccc31)c1cccc(O[C@@H]3O[C@H](CO)[C@@H](O)[C@H](O)[C@H]3O)c1C2=O [SE, Sennoside A]
inhibition at 50 µM [1, 4]: 30 to 33%
effect on basal phosphorylation of cofilin [1]: Neither D3 nor SE affected the basal phosphorylation of LIMK or cofilin
inhibition of CCK-8-induced dephosphorylation of cofilin [2]: completely inhibited
inhibition at 50 µM [3, 5]: 20%
effect on basal phosphorylation of LIMK [3]: Neither D3 nor SE affected the basal phosphorylation of LIMK or cofilin

VIP: pancreatic acinar secretagogue (HSDAVFTDNYTRLRKQMAVKKYLNSILN; ends and bridges not checked; UniProt P01282 125-152, looked up)
effect on cofilin phosphorylation (pS3) [1]: rapidly decreased cofilin phosphorylation

KbNB142-70
effect on basal phosphorylation level of cofilin [1]: None of these inhibitors altered the basal phosphorylation level of cofilin
reversal of cofilin dephosphorylation stimulated by CCK-8 and TPA [1]: completely reversed

bombesin
effect on cofilin phosphorylation (pS3) [1]: rapidly decreased cofilin phosphorylation

C[N+](C)(C)CCOC(N)=O [carbachol]
effect on cofilin phosphorylation (pS3) [1]: rapidly decreased cofilin phosphorylation

Cc1c[nH]c2ncnc(-c3ccc(NC(=O)N(CCO)c4ccccc4)cc3)c12 [SR7826]
decrease of basal phosphorylation levels of cofilin [1]: 67%
inhibition of CCK-8-stimulated dephosphorylation of cofilin [1]: did not inhibit
decrease of basal levels of LIMK phosphorylation [3]: 33%
increase in LIMK phosphorylation with CCK-8 stimulation [3, 6]: 80%
inhibition of LIMK dephosphorylation caused by CCK-8 [3, 6]: completely inhibited

C[C@@H](N)[C@H]1CC[C@H](C(=O)Nc2ccncc2)CC1 [Y-27632]
reversal of cofilin dephosphorylation by CCK-8 [1]: completely reversed

COC[C@H]1OC(=O)c2coc3c2[C@@]1(C)C1=C(C3=O)[C@@H]2CCC(=O)[C@@]2(C)C[C@H]1OC(C)=O [Wortmannin]
reversal of cofilin dephosphorylation by CCK-8 [1]: not PI3K or p38

CC(C)C(=O)Nc1ncc(-c2cc(C(F)F)nn2-c2c(Cl)cccc2Cl)s1 [LIMKi3]
decrease of basal phosphorylation levels of cofilin [1]: 39%
inhibition of CCK-8-stimulated dephosphorylation of cofilin [1]: did not inhibit
decrease of basal levels of LIMK phosphorylation [3]: 33%
inhibition of LIMK dephosphorylation caused by CCK-8 [3, 6]: completely inhibited

COc1cccc(Nc2nc(NCC3CCCO3)c3ccccc3n2)c1 (centres unmarked) [LCH-7749944, N2-(3-methoxyphenyl)-N4-[(oxolan-2-yl)methyl]quinazoline-2,4-diamine]
inhibition of dephosphorylation of cofilin stimulated by CCK-8 or TPA [1]: completely inhibited

O=c1cc(N2CCOCC2)oc2c(-c3ccccc3)cccc12 [LY294002]
reversal of cofilin dephosphorylation by CCK-8 [1]: not PI3K or p38

secretin
effect on cofilin phosphorylation (pS3) [1]: rapidly decreased cofilin phosphorylation

Cc1nc(Nc2[nH]nc3c2CN(C(=O)N[C@H](CN(C)C)c2ccccc2)C3(C)C)c2sccc2n1 [PF-3758309]
inhibition of dephosphorylation of cofilin stimulated by CCK-8 or TPA [1]: completely inhibited

Cc1ccccc1N1C(=O)/C(=C/c2ccc(OCc3ccc(C(=O)O)cc3)cc2)SC1=S [D3, (Z)-4-((4-((4-oxo-2-thioxo-3-(o-tolyl)thiazolidin-5-ylidene)methyl)phenoxy)methyl)benzoic acid]
inhibition at 25 µM [1, 4]: 32 to 49%
effect on basal phosphorylation of cofilin [1]: Neither D3 nor SE affected the basal phosphorylation of LIMK or cofilin
inhibition of CCK-8-induced dephosphorylation of cofilin [2]: completely inhibited
inhibition at 25 µM [3, 5]: 20%
effect on basal phosphorylation of LIMK [3]: Neither D3 nor SE affected the basal phosphorylation of LIMK or cofilin

CC(C)(C)n1nc(-c2ccc(Cl)cc2)c2c(N)ncnc21 [PP2]
effect on basal phosphorylation level of cofilin [1]: None of these inhibitors altered the basal phosphorylation level of cofilin
reversal of cofilin dephosphorylation stimulated by CCK-8 and TPA [1]: completely reversed
